From patent publication US10160753B2, “Indazole compounds as IRAK4 inhibitors” (Aurigene Discovery Technologies Limited, priority 2014, dated 2018) come the findings set out here.

Structures can show the parent of a compound that is named as a salt.

This assay has as its target T1, recombinant IRAK-4 kinase (Homo sapiens, UniProt Q9NWZ3).
T1 construct: purchased Millipore, USA
T1 sequence (Q9NWZ3 1-460): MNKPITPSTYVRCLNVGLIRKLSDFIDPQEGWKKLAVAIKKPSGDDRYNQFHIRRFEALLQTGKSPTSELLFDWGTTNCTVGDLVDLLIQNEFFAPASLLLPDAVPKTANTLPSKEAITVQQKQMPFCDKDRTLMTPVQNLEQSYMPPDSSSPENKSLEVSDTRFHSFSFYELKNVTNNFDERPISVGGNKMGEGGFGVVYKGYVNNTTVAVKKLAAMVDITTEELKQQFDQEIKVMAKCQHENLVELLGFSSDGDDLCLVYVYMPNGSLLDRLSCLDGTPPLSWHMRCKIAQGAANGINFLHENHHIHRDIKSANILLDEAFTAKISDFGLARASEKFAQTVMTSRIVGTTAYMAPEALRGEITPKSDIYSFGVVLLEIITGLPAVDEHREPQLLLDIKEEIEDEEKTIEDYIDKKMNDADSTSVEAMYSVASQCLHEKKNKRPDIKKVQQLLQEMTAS
Nature of the assay: IRAK-4 Biochemical Assay (TR-FRET). Particulars: 30 min pre-incubation, 100 nM Biotin Histone H3, 20 μM ATP, read-out: IC50 values for IRAK4 activity. As to the method:
Compounds were tested for their potential to inhibit IRAK-4 enzyme in a TR-FRET assay using recombinant IRAK-4 kinase from Millipore, USA. The assay buffer was 50 mM Tris-HCl pH 7.5, 20 mM MgCl2, 1 mM EGTA, 2 mM DTT, 3 mM MnCl2 and 0.01% Tween 20.5 ng of IRAK-4 kinase was used for the assay. After pre-incubation of enzyme with test compound for 30 minutes at room temperature, a substrate mixture containing 100 nM Biotin Histone H3 (Millipore, USA) and 20 μM ATP (Sigma, USA) was added and the reaction was incubated for 30 min. Post incubation, the reaction was stopped by the addition of stop mix containing 40 mM EDTA, 1 nM of Europium-Anti-Phospho-Histone H3 (Ser10) antibody (Perkin Elmer, USA) and 20 nM SureLight Allophycocyanin-Streptavidin (Perkin Elmer, USA). The fluorescence emission at 615 nm and 665 nm were measured at an excitation of 340 nm and the percent inhibition was estimated from the ratio of the fluorescence intensities [(F665/F615)×10000]. The compounds were initially screened at 1 μM and 10 μM concentrations and potent compounds (>50% inhibition at 1 μM) were taken for dose response studies. The IC50 values were estimated by fitting the dose-response data to sigmoidal dose response (variable slope), curve fitting program using Graphpad Prism software Version 6.01.
A general note: Time-resolved FRET reads energy transfer from a long-lived donor to a nearby acceptor.
By IC50 is commonly meant the concentration that inhibits the measured activity by half. On to `Cn1cc2cc(NC(=O)c3cccc(-c4cn[nH]c4)n3)c(N3CCCCC3)cc2n1` [Example 1, N-(2-methyl-6-(piperidin-1-yl)-2H-indazol-5-yl)-6-(1H-pyrazol-4-yl) picolinamide], for which the IC50 was under 50 nM. In the case of `Cc1cc(-c2nc(C(=O)Nc3cc4cn(C)nc4cc3N3CCCCC3)co2)ccn1` [Example 2, N-(2-methyl-6-(piperidin-1-yl)-2H-indazol-5-yl)-2-(2-methylpyridin-4-yl) oxazole-4-carboxamide], the IC50 was under 50 nM. With `Cc1cc(-c2nc(C(=O)Nc3cc4cnn(C)c4cc3N3CCCCC3)co2)ccn1` [Example 3, N-(1-methyl-6-(piperidin-1-yl)-1H-indazol-5-yl)-2-(2-methylpyridin-4-yl) oxazole-4-carboxamide] the figure was under 50 nM; with `Cc1cc(-c2nc(C(=O)Nc3cc4cn(C5CCCC5)nc4cc3N3CCCCC3)co2)ccn1` [Example 4, N-(2-cyclopentyl-6-(piperidin-1-yl)-2H-indazol-5-yl)-2-(2-methylpyridin-4-yl) oxazole-4-carboxamide], under 50 nM; with `Cc1cc(-c2nc(C(=O)Nc3cc4cn(C5CCCC5)nc4cc3C#N)co2)ccn1` [Example 5, N-(6-cyano-2-cyclopentyl-2H-indazol-5-yl)-2-(2-methylpyridin-4-yl) oxazole-4-carboxamide], under 50 nM.

Regarding `Cc1cc(-c2nc(C(=O)Nc3cc4cn(C5CCCC5)nc4cc3C3CC3)co2)ccn1` [Example 6, N-(2-cyclopentyl-6-cyclopropyl-2H-indazol-5-yl)-2-(2-methylpyridin-4-yl) oxazole-4-carboxamide], the IC50 is under 50 nM. As for `O=C(Nc1cc2cn(C3CCCC3)nc2cc1C1CC1)c1cccc(-c2cn[nH]c2)n1` [Example 7, N-(2-cyclopentyl-6-cyclopropyl-2H-indazol-5-yl)-6-(1H-pyrazol-4-yl) picolinamide], the IC50 was under 50 nM. With `Cc1cc(-c2nc(C(=O)Nc3cc4cn(C5CCCC5)nc4cc3N3CCOCC3)co2)ccn1` [Example 8, N-(2-cyclopentyl-6-morpholino-2H-indazol-5-yl)-2-(2-methylpyridin-4-yl) oxazole-4-carboxamide] the figure was under 50 nM; with `Nc1ccc(-c2cccc(C(=O)Nc3cc4cn(C5CCCC5)nc4cc3N3CCOCC3)n2)cn1` [Example 9, 6′-amino-N-(2-cyclopentyl-6-morpholino-2H-indazol-5-yl)-[2,3′-bipyridine]-6-carboxamide 2,2,2-trifluoroacetate], under 50 nM. In the case of `Cc1cc(-c2nc(C(=O)Nc3cc4cn(C)nc4cc3-c3cccc(F)c3)co2)ccn1` [Example 10, N-(6-(3-fluorophenyl)-2-methyl-2H-indazol-5-yl)-2-(2-methylpyridin-4-yl)oxazole-4-carboxamide], the IC50 was under 50 nM. On to `Cc1cc(-c2nc(C(=O)Nc3cc4cn(C)nc4cc3C3CCCCC3)co2)ccn1` [Example 11, N-(6-cyclohexyl-2-methyl-2H-indazol-5-yl)-2-(2-methylpyridin-4-yl)oxazole-4-carboxamide hydrochloride], for which the IC50 was under 50 nM. The figure for `Cn1cc2cc(NC(=O)c3cccc(-c4ccc(F)nc4)n3)c(N3CCCCC3)cc2n1` [Example 12, 6′-fluoro-N-(2-methyl-6-(piperidin-1-yl)-2H-indazol-5-yl)-[2,3′-bipyridine]-6-carboxamide hydrochloride] is under 50 nM; for `Cn1cc2cc(NC(=O)c3cccc(-c4cn[nH]c4)n3)c(C3CCCCC3)cc2n1` [Example 13, N-(6-cyclohexyl-2-methyl-2H-indazol-5-yl)-6-(1H-pyrazol-4-yl)picolinamide hydrochloride] it is under 50 nM; for `Cn1cc2cc(NC(=O)c3cccc(-c4cccnc4F)n3)c(N3CCCCC3)cc2n1` [Example 14, 2′-fluoro-N-(2-methyl-6-(piperidin-1-yl)-2H-indazol-5-yl)-[2,3′-bipyridine]-6-carboxamide] it is under 50 nM. The figure for `Cn1cc2cc(NC(=O)c3coc(-c4ccnc(Cl)c4)n3)c(N3CCCCC3)cc2n1` [Example 15, 2-(2-chloropyridin-4-yl)-N-(2-methyl-6-(piperidin-1-yl)-2H-indazol-5-yl)oxazole-4-carboxamide hydrochloride] is under 50 nM; for `Cc1cc(-c2nc(C(=O)Nc3cc4cn(C)nc4cc3C3CC3)co2)ccn1` [Example 16, N-(6-cyclopropyl-2-methyl-2H-indazol-5-yl)-2-(2-methylpyridin-4-yl)oxazole-4-carboxamide hydrochloride] it is under 50 nM; for `Cn1cc(-c2cccc(C(=O)Nc3cc4cnn(C5CCCC5)c4cc3C3CC3)n2)cn1` [Example 17, N-(1-cyclopentyl-6-cyclopropyl-1H-indazol-5-yl)-6-(1-methyl-1H-pyrazol-4-yl)picolinamide] it is over 100 nM. Turning to `Cn1cc(-c2cccc(C(=O)Nc3cc4cn(C5CCCC5)nc4cc3C3CC3)n2)cn1` [Example 18, N-(2-cyclopentyl-6-cyclopropyl-2H-indazol-5-yl)-6-(1-methyl-1H-pyrazol-4-yl)picolinamide], the IC50 is under 50 nM.

Turning to `Cn1cc(-c2cccc(C(=O)Nc3cc4cn(C)nc4cc3N3CCCCC3)n2)cn1` [Example 19, 6-(1-methyl-1H-pyrazol-4-yl)-N-(2-methyl-6-(piperidin-1-yl)-2H-indazol-5-yl)picolinamide], the IC50 is under 50 nM. With `COc1ccc(-c2nc(C(=O)Nc3cc4cn(C5CCCC5)nc4cc3C3CC3)co2)cn1` [Example 20, N-(2-cyclopentyl-6-cyclopropyl-2H-indazol-5-yl)-2-(6-methoxypyridin-3-yl)oxazole-4-carboxamide] the figure was under 50 nM; with `COc1ccc(-c2nc(C(=O)Nc3cc4cn(C)nc4cc3N3CCCCC3)co2)cn1` [Example 21, 2-(6-methoxypyridin-3-yl)-N-(2-methyl-6-(piperidin-1-yl)-2H-indazol-5-yl)oxazole-4-carboxamide], under 50 nM. The figure for `Cc1cnccc1-c1nc(C(=O)Nc2cc3cn(C)nc3cc2N2CCCCC2)co1` [Example 22, N-(2-methyl-6-(piperidin-1-yl)-2H-indazol-5-yl)-2-(3-methylpyridin-4-yl)oxazole-4-carboxamide] is under 50 nM. As to `Cn1cc2cc(NC(=O)c3cccc(Br)n3)c(N3CCCCC3)cc2n1` [Example 23, 6-bromo-N-(2-methyl-6-(piperidin-1-yl)-2H-indazol-5-yl)picolinamide], the IC50 was under 50 nM. In the case of `Cc1ccc(C(=O)Nc2cc3cn(C)nc3cc2N2CCCCC2)nc1Cl` [Example 24, 6-chloro-5-methyl-N-(2-methyl-6-(piperidin-1-yl)-2H-indazol-5-yl)picolinamide], the IC50 is under 50 nM. The figure for `Cc1ccc(-c2nc(C(=O)Nc3cc4cn(C)nc4cc3N3CCCCC3)co2)cn1` [Example 25, N-(2-methyl-6-(piperidin-1-yl)-2H-indazol-5-yl)-2-(6-methylpyridin-3-yl)oxazole-4-carboxamide] is under 50 nM; for `Cc1ncccc1-c1nc(C(=O)Nc2cc3cn(C4CCCC4)nc3cc2C2CC2)co1` [Example 26, N-(2-cyclopentyl-6-cyclopropyl-2H-indazol-5-yl)-2-(2-methylpyridin-3-yl)oxazole-4-carboxamide] it is under 50 nM.
